Measured values reported in US7282512B2, “Cycloalkyl ketoamides derivatives useful as cathepsin K inhibitors” (SmithKline Beecham Corporation, priority 2002, dated 2007).

Each compound was assayed against human cathepsin S (Homo sapiens, UniProt P25774) (assay: cathepsin S inhibition assay, fluorogenic substrate Cbz-Val-Val-Arg-AMC). Settings: Table 2; human recombinant enzyme, 10 μM substrate; read-out: hCat S Ki.
Assay type: biochemical
Procedure: All assays for cathepsin K were carried out with human and rat recombinant enzyme. Assays for cathepsins S & V were also carried out with human recombinant enzyme. Assays for human cathepsins B, H, and L were carried out with enzyme, purchased from Athens Research and Technology, Inc., prepared from human liver tissue. Standard assay conditions for the determination of kinetic constants used a fluorogenic peptide substrate, typically (5S,8S)-13-amino-5-benzyl-13-imino-3-methylene-N-(4-methyl-2-oxo-2H-chromen-7-yl)-6-oxo-1-phenyl-2-oxa-4,7,12-triazatridecane-8-carboxamide (Cbz-Phe-Arg-AMC), and were determined in 100 mM sodium acetate at pH 5.5 containing 10 mM dithiothreitol and 120 mM sodium chloride. A stock substrate solution of Cbz-Phe-Arg-AMC was prepared at a concentration of 50 mM in dimethyl sulfoxide. This substrate was diluted into the assay for a final substrate concentration of 10 μM in the rat cathepsin K, human cathepsin K, and human cathepsin B assays; a final substrate concentration of 5 μM in the human cathepsin L assay; and a final substrate concentration of 2 μM in the human cathepsin V assay. […]
All assays contained 10% dimethyl sulfoxide. […] Product fluorescence (excitation at 360 nm; emission at 440 nm, (except cathepsin H which used excitation at 340 nm; emission at 420 nm)) was monitored with a PerSeptive Biosystems Cytofluor II fluorescence plate reader. […]
Potential inhibitors were evaluated using the progress curve method. […] For those compounds whose progress curves were linear, the enzymatic activity (RATE) was plotted against the concentration of test compound, including inhibitor concentration of zero ([I]=0), and the IC50 determined from a fit of equation 1 to the data, RATE=Vmax/(1+([I]/IC50)) (1) where Vmax is the best fit estimate of the maximal enzymatic activity. Ki values were calculated from IC50 values using equation 2 assuming a competitive model.

human cathepsin S, sequence (P25774 115-331): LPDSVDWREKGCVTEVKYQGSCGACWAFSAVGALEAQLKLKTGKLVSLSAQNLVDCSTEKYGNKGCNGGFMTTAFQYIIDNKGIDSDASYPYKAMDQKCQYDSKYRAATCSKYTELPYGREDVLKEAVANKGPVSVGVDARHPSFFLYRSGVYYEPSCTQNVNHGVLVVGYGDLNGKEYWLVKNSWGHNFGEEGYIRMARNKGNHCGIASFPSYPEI

| Structure (SMILES) | Ki |
| --- | --- |
| CCCC[C@H](NC(=O)OC1(c2nc3ccccc3s2)CCCC1)C(=O)C(=O)Nc1ccn[nH]1 [Example 17, 1-(1,3-Benzothiazol-2-yl)cyclopentyl(1S)-1-[oxo(1H-pyrazol-3-ylamino)acetyl]pentylcarbamate] | 10 to 100 nM |
| CCCC[C@H](NC(=O)OC1(Cc2ccccc2)CCCC1)C(=O)C(=O)N[C@@H](C)C(=O)OCc1ccccc1 [Example 3, Benzyl (2S)-2-{[(3S)-3-({[(1-benzylcyclopentyl)oxy]carbonyl}amino)-2-oxoheptanoyl]amino}propanoate] | 100 to 1000 nM |
| CCCC[C@H](NC(=O)OCC1(Cc2ccc(F)cc2)CCC1)C(=O)C(=O)Nc1n[nH]c2cc(Cl)ccc12 [Example 15, [1-(4-fluorobenzyl)cyclobutyl]methyl(1S)-1-[[(6-chloro-1H-indazol-3-yl)amino](oxo)acetyl]pentylcarbamate] | 1 to 10 nM |
